Measured values reported in patent US8093273B2, “Flavanoids and isoflavanoids for the prevention and treatment of cardiovascular diseases” (Resverlogix Corp., priority 2004, dated 2012).
Read-outs that look alike come from different tables or passages of the source.

Columns and labels:
ApoA-I protein = ApoA-I protein expression in HepG2 cells (ELISA of conditioned media); assay type: cell-based, human; details: 7.5 μM
Protocol: This study confirmed that compounds of the invention have an effect on ApoA-I protein secretion in HepG2 (liver) cells by measuring whether stimulation of transcriptional activity of the endogenous ApoA-I promoter in the HepG2 cells increased the abundance and secretion of ApoA-I protein.
The HepG2 cell line was obtained from the ATCC and cultured in MEM media supplemented with 10% FBS (Gibco), with 1 mM sodium pyruvate, 0.1 mM MEM non-essential amino acid, 2 mM L-glutamine, 100 U/ml penicillin, 100 μg/ml streptomycin and 5 μg/ml plasmocin. Cells were maintained at 37° C. in an atmosphere of 5% CO2 Cells were grown to 85% confluency prior to initiating the experiment.
Cells were plated and allowed to adhere overnight in a phenol red-free DMEM containing 10% of Charcoal/Dextran treated FBS (Hyclone), with 1 mM sodium pyruvate, 0.1 mM MEM non-essential amino acid, 2 mM L-glutamine, 100 U/ml penicillin, 100 μg/ml streptomycin and 5 μg/ml plasmocin. The medium was removed, and cells were washed in 1×PBS. Cells were then starved in phenol red-free DMEM (serum free) for a period of 24 hours. Cells were then mock treated (untreated, DMSO), or treated with compound of the invention diluted in phenol red-free DMEM (serum free) media at a concentration of 7.5 μM. Cells and media were harvested at 0, 6 and 24 hours following compound treatment.
Medium was removed from cells at the desired times and applied to a solid phase capture sandwich in an ELISA assay according to manufacturer's instructions (Total human Apolipoprotein ELISA Assay-Alercheck).

Caco-2 permeability = assay type: in vitro ADME, human; details: human, Caco-2
Source text: The Caco-2 cell drug transport model is widely used for screening compounds in drug discovery to assess intestinal transport and predict absorption rates.

hApoA-I transgenic mice = assay: hApoA-I transgenic mice, oral gavage for 14 days; assay type: in vivo; details: Mus musculus, po, 336 h, relative to pretreatment, read-out: ApoA-I (% change); for change in vivo at 10 mg/kg: 10 mg/kg BID 14 days
Procedure, shortened: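 Male hApoA-I transgenic mice (7–8 weeks) dosed orally by gavage daily for 14 days, BID or SID, as suspensions at 5 mL/kg in 0.5% methylcellulose/1% Tween 80 or F-101; fenofibrate 100 mg/kg as positive control. After a 4 h fast on day 15, plasma ApoA-I, HDL-C, total cholesterol and triglycerides measured relative to pre-bleed-matched groups.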

O=c1cc(-c2ccc(O)cc2)oc2ncccc12 [Example 34, 2-(4-Hydroxy-phenyl)-pyrano[2,3-b]pyridin-4-one]
ApoA-I content in the medium (ELISA) (ApoA-I protein; 6 and 24 hours, vs untreated cells and cells treated with solvent): increased significantly | time after addition of compound at which ApoA-I levels in the medium start to increase (ApoA-I protein; time course 0, 6, 24 hours): ~6 h | Papp (Caco-2 permeability): 6.36 ×10⁻⁶ cm/s | change in vivo at 3 mg/kg (hApoA-I transgenic mice; Table 6 first group, 3 mg/kg BID 14 days, Control 1 (0.5% MC & 1% Tween 80) 11.94): 18.9% | change in vivo at 10 mg/kg (hApoA-I transgenic mice; Table 6 first group, Control 1 11.94): 36.6% | change in vivo at 30 mg/kg (hApoA-I transgenic mice; Table 6 first group, 30 mg/kg BID 14 days, Control 1 11.94): 47.5% | change in vivo at 10 mg/kg (hApoA-I transgenic mice; Table 6 third group, Control 3 (F-101) (6.32)): 30.9%
